Test results from the supplement of paper PMC11208160.

Assay: recombinant barcode read abundance after kanamycin selection (control-corrected) (log10(CPM+1)); higher = more efficient recombination; sequences stand for … in AGTGCAGAGAAAATCGGCCAGTTTTCTCTGCCTGCAGTCCGCATGCCGT…AGATTTATGCAGCGGACTGCCTTTCTCCCAAAGTGATAAACCGGACAGTATCATGGACCGGTTTTCCCGGTAATCCGTATTTGCAAGGTTGGTTTCACT; site = the 11-nt target
Procedure, shortened: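 Oligos holding a promoter, target, barcode and the J23119-driven first 104 bases of the bridge RNA were Gibson-cloned into a vector that supplied the other 73 bp plus a T7-inducible recombinase. This library was co-electroporated with a donor plasmid into E. coli. Two replicates went on chloramphenicol/ampicillin LB agar (control) and two on chloramphenicol/ampicillin/kanamycin with 0.1 mM IPTG. Recombination efficiency is read from averaged, control-corrected barcode counts per million at recombinant junctions, reported as log10(CPM+1).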
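Further: IS621 recombinase and bridge RNA in Escherichia coli cells.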

Row | Sequence | recombinant barcode read abundance (log10)
1 | ATTTCGACTTGGGTTCTAACCTGTTGCGG (site GCAGGTGCTAA) | 0.021
2 | ATTTCTACTTGGGTTCTAACCTGTTGCGA (site ATTTCTACTTC) | 0.194
3 | ATTTCTACTTGGGTTCTAACCTGTTGCGA (site GTTTCTACTTA) | 0.102
4 | ATTTGGACTTGGGTTCTAACCTGTTGCCT (site ATTTGAACTAG) | 0.173
5 | ATTTGGACTTGGGTTCTAACCTGTTGCCT (site ATTTGCACTAG) | 0.0773
6 | ATTTGGACTTGGGTTCTAACCTGTTGCCT (site ATTTGGACTAG) | 0.111
7 | ATTTGGACTTGGGTTCTAACCTGTTGCCT (site ATTTGTACTAG) | 0.0943
8 | CAAAAGGCTTGGGTTCTAACCTGTTGCCT (site ATCGTACCTTA) | 0.469
9 | CAAAAGGCTTGGGTTCTAACCTGTTGCCT (site CAAAAGGCTAG) | 0.0565
10 | CAAACAACTTGGGTTCTAACCTGTTGCCT (site CAAACAACTAG) | 0.235
11 | CAAACAACTTGGGTTCTAACCTGTTGCCT (site CAAACACCTAG) | 0.188
12 | CAAACAACTTGGGTTCTAACCTGTTGCCT (site CAAACAGCTAG) | 0.101
13 | CAAACAACTTGGGTTCTAACCTGTTGCCT (site CAAACATCTAG) | 0.133
14 | CAAACTACTTGGGTTCTAACCTGTTGCTA (site CAAACTACTGT) | 0.011
15 | CAAACTACTTGGGTTCTAACCTGTTGCTA (site CAAACTACTTA) | 0.386
16 | CAAACTCCTTGGGTTCTAACCTGTTGCAT (site CAAACTCCTAA) | 0.116
17 | CAAACTCCTTGGGTTCTAACCTGTTGCAT (site CAAACTCCTAC) | 0.0268
18 | CAAACTCCTTGGGTTCTAACCTGTTGCAT (site CAAACTCCTAG) | 0.0257
19 | CAAACTCCTTGGGTTCTAACCTGTTGCAT (site CAAACTCCTAT) | 0.713
20 | CAAACTCCTTGGGTTCTAACCTGTTGCCT (site CAAACTCCTAA) | 0.137
21 | CAAACTCCTTGGGTTCTAACCTGTTGCCT (site CAAACTCCTAC) | 0.0217
22 | CAAACTCCTTGGGTTCTAACCTGTTGCCT (site CAAACTCCTAG) | 0.238

Row | Sequence | recombinant barcode read abundance (log10)
23 | CAAACTCCTTGGGTTCTAACCTGTTGCCT (site CAAACTCCTAT) | 0.067
24 | CAAACTCCTTGGGTTCTAACCTGTTGCTT (site CAAACTCCTAA) | 0.191
25 | CAAACTCCTTGGGTTCTAACCTGTTGCTT (site CAAACTCCTAC) | 0.0428
26 | CAAACTCCTTGGGTTCTAACCTGTTGCTT (site CAAACTCCTAG) | 0.221
27 | CAAACTCCTTGGGTTCTAACCTGTTGCTT (site CAAACTCCTAT) | 0.0809
28 | CAAAGACCTTGGGTTCTAACCTGTTGCGG (site AAAATACCTCC) | 0.14
29 | CAAAGACCTTGGGTTCTAACCTGTTGCGG (site CAAAGACCTCC) | 2.06
30 | CAAAGATCTTGGGTTCTAACCTGTTGCTT (site CAAAGATCTAA) | 1.03
31 | CAAAGATCTTGGGTTCTAACCTGTTGCTT (site CACAGATCTAA) | 0.046
32 | CAAAGATCTTGGGTTCTAACCTGTTGCTT (site CAGAGATCTAA) | 0.0421
33 | CAAAGATCTTGGGTTCTAACCTGTTGCTT (site CATAGATCTAA) | 0.108
34 | CAAAGGCCTTGGGTTCTAACCTGTTGCCT (site CAAAGGCCTAG) | 0.173
35 | CAAAGGCCTTGGGTTCTAACCTGTTGCCT (site CAACGGCCTAG) | 0.0335
36 | CAAAGGCCTTGGGTTCTAACCTGTTGCCT (site CAAGGGCCTAG) | 0.228
37 | CAAAGGCCTTGGGTTCTAACCTGTTGCCT (site CAATGGCCTAG) | 0.157
38 | CAAAGGTCTTGGGTTCTAACCTGTTGCTA (site CAAAGGTCTTA) | 1.39
39 | CAAAGGTCTTGGGTTCTAACCTGTTGCTA (site TAAAGGCCTTA) | 0.0182
40 | CAAAGTGCTTGGGTTCTAACCTGTTGCCT (site CAAAGTGCTAG) | 0.517
41 | CAAAGTGCTTGGGTTCTAACCTGTTGCCT (site GAAAGTGCTAG) | 0.205
42 | CAAATGTCTTGGGTTCTAACCTGTTGCCT (site AAAATGCCTAG) | 0.299
43 | CAAATGTCTTGGGTTCTAACCTGTTGCCT (site CAAATGTCTAG) | 1.1
44 | CAACACCCTTGGGTTCTAACCTGTTGCAT (site CAACACCCTAT) | 2.33

Row | Sequence | recombinant barcode read abundance (log10)
45 | CAACACCCTTGGGTTCTAACCTGTTGCAT (site GTTTCAACTTG) | 0.157
46 | CAACCACCTTGGGTTCTAACCTGTTGCTT (site CAAACACCTAA) | 0.142
47 | CAACCACCTTGGGTTCTAACCTGTTGCTT (site CAACCACCTAA) | 1.41
48 | CAACCACCTTGGGTTCTAACCTGTTGCTT (site CAAGCACCTAA) | 0.0953
49 | CAACCACCTTGGGTTCTAACCTGTTGCTT (site CAATCACCTAA) | 0.159
50 | CAAGTACCTTGGGTTCTAACCTGTTGCCT (site AAAGTACCTAG) | 0.343
51 | CAAGTACCTTGGGTTCTAACCTGTTGCCT (site CAAGTACCTAG) | 0.688
52 | CAAGTACCTTGGGTTCTAACCTGTTGCCT (site GAAGTACCTAG) | 0.185
53 | CAAGTACCTTGGGTTCTAACCTGTTGCCT (site TAAGTACCTAG) | 0.22
54 | CAAGTTGCTTGGGTTCTAACCTGTTGCCT (site CAAGTAGCTAG) | 0.14
55 | CAAGTTGCTTGGGTTCTAACCTGTTGCCT (site CAAGTCGCTAG) | 0.305
56 | CAAGTTGCTTGGGTTCTAACCTGTTGCCT (site CAAGTGGCTAG) | 0.227
57 | CAAGTTGCTTGGGTTCTAACCTGTTGCCT (site CAAGTTGCTAG) | 1.43
58 | CAATGGGCTTGGGTTCTAACCTGTTGCCG (site CAATGGGCTCG) | 0.961
59 | CAATGGGCTTGGGTTCTAACCTGTTGCCG (site CGATGGACTCG) | 0.179
60 | CAATGGTCTTGGGTTCTAACCTGTTGCCT (site CAATGGTCTAA) | 0.376
61 | CAATGGTCTTGGGTTCTAACCTGTTGCCT (site CAATGGTCTAC) | 0.0107
62 | CAATGGTCTTGGGTTCTAACCTGTTGCCT (site CAATGGTCTAG) | 1.54
63 | CAATGGTCTTGGGTTCTAACCTGTTGCCT (site CAATGGTCTAT) | 0.939
64 | CAATGGTCTTGGGTTCTAACCTGTTGCGT (site CAATGGTCTAA) | 0.583
65 | CAATGGTCTTGGGTTCTAACCTGTTGCGT (site CAATGGTCTAC) | 3.06
66 | CAATGGTCTTGGGTTCTAACCTGTTGCGT (site CAATGGTCTAG) | 0.638

Row | Sequence | recombinant barcode read abundance (log10)
67 | CAATGGTCTTGGGTTCTAACCTGTTGCGT (site CAATGGTCTAT) | 2.16
68 | CACAATCCTTGGGTTCTAACCTGTTGCGT (site CACAATCCTAC) | 1.76
69 | CACAATCCTTGGGTTCTAACCTGTTGCGT (site CACACACCTAC) | 0.0965
70 | CACACGACTTGGGTTCTAACCTGTTGCCT (site CACACGACTAG) | 0.99
71 | CACACGACTTGGGTTCTAACCTGTTGCCT (site CACACGTCTAG) | 0.109
72 | CACACGTCTTGGGTTCTAACCTGTTGCCT (site CACACGACTAG) | 0.103
73 | CACACGTCTTGGGTTCTAACCTGTTGCCT (site CACACGTCTAG) | 1.24
74 | CACACTACTTGGGTTCTAACCTGTTGCTG (site CACACTACTCA) | 0.818
75 | CACACTACTTGGGTTCTAACCTGTTGCTG (site GGTGAGCCTAC) | 0.24
76 | CACAGACCTTGGGTTCTAACCTGTTGCCT (site AACAGACCTAG) | 0.00929
77 | CACAGACCTTGGGTTCTAACCTGTTGCCT (site CACAGACCTAG) | 1.47
78 | CACAGACCTTGGGTTCTAACCTGTTGCCT (site GACAGACCTAG) | 0.205
79 | CACAGACCTTGGGTTCTAACCTGTTGCCT (site TACAGACCTAG) | 0.251
80 | CACAGATCTTGGGTTCTAACCTGTTGCTT (site CAAAGATCTAA) | 0.14
81 | CACAGATCTTGGGTTCTAACCTGTTGCTT (site CACAGATCTAA) | 0.351
82 | CACAGATCTTGGGTTCTAACCTGTTGCTT (site CAGAGATCTAA) | 0.122
83 | CACAGATCTTGGGTTCTAACCTGTTGCTT (site CATAGATCTAA) | 0.0763
84 | CACAGTACTTGGGTTCTAACCTGTTGCCT (site AACAGTACTAG) | 0.0407
85 | CACAGTACTTGGGTTCTAACCTGTTGCCT (site CACAGTACTAG) | 0.901
86 | CACAGTACTTGGGTTCTAACCTGTTGCCT (site GACAGTACTAG) | 0.29
